Measurements published in paper PMC9945182 (Chemical Research in Toxicology, 2023).
Read-outs that look alike come from different tables or passages of the source.

Assays:
UGT1A9 = molecular target: T1, UGT1A9 (Homo sapiens, UniProt O60656); format: biochemical; conditions: 3HC 30 mM; for decrease in 3HC-Gluc formation: UGT1A9 microsomes; for IC50: rec UGT1A9 microsomes
T1 sequence (O60656 26-530): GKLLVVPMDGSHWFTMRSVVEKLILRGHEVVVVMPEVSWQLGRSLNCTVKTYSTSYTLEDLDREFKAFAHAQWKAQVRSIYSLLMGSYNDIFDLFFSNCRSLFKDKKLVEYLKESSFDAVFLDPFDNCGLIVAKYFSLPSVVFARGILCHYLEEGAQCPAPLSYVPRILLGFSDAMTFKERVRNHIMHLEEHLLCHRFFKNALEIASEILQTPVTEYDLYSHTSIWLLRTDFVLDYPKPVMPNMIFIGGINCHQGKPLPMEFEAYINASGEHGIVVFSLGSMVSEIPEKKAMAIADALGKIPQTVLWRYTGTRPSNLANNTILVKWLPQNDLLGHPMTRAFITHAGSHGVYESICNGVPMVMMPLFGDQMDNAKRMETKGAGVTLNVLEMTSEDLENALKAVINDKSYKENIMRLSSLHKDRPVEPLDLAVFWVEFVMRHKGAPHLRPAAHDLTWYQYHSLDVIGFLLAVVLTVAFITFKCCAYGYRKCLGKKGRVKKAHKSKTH

UGT2B7 = molecular target: T2, UGT2B7 (Homo sapiens, UniProt P16662); format: biochemical; conditions: for decrease in 3HC-Gluc formation: 3HC 30 mM, UGT2B7 microsomes
T2 sequence (P16662 24-529): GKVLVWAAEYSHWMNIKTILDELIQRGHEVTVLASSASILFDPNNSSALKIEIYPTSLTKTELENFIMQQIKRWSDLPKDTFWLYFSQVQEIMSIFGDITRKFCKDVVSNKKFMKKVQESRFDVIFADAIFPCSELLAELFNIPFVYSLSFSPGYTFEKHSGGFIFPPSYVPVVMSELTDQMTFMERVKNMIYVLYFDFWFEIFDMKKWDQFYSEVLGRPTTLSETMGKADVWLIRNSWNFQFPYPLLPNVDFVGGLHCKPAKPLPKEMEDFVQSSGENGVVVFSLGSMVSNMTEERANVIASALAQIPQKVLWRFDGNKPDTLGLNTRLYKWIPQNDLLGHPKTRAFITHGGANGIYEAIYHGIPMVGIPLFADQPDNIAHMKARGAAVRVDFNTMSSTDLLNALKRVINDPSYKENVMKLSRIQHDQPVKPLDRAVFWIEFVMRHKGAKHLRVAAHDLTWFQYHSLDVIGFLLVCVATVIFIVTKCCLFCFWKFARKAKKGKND

UGT2B10 = molecular target: T3, UGT2B10 (Homo sapiens, UniProt P36537); conditions: previous studies; cited from earlier work
T3 sequence (P36537 24-528): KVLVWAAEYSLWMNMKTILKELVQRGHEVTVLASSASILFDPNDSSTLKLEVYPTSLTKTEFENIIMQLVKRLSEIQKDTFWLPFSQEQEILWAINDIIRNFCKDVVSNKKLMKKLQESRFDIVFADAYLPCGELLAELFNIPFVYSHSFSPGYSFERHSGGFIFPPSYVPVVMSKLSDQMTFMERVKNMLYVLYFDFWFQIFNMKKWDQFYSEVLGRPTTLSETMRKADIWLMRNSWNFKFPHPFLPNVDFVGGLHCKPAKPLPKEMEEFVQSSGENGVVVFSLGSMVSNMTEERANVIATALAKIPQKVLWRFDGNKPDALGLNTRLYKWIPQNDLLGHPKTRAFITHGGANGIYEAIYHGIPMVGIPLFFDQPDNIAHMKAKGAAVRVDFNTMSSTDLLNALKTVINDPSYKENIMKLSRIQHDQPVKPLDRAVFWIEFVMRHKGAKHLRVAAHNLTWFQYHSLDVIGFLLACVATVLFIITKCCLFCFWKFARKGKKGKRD

cigarette smokers = conditions: single 800 mg oral dose, compared with a placebo group; cited from earlier work
[1] = to protein and labware; cited from earlier work

C=C(C)[C@@H]1CCC(C)=C[C@H]1c1c(O)cc(CCCCC)cc1O [CBD, cannabidiol]
decrease in 3HC-Gluc formation (UGT1A9; 1 μM CBD): 55%
decrease in 3HC-Gluc formation (UGT1A9; 10 μM CBD): 65%
IC50 (UGT1A9; IC50, 3HC-Gluc formation, 2% BSA): 9.7 ± 1.5 µM
IC50 (UGT1A9; IC50,u (binding-corrected IC50), 3HC-Gluc formation, IC50 × fu,inc): 0.37 ± 0.06 µM
decrease in 3HC-Gluc formation (UGT2B7; 1 μM CBD): 35%
decrease in 3HC-Gluc formation (UGT2B7; 10 μM CBD): 55%
inhibition at 100 μM (UGT2B7; human, microsomes from UGT2B7-overexpressing HEK293 cells, pH 7.4, probe 3HC (30 mM), 3HC-Gluc formation): > 50%
inhibition of nicotine-Gluc formation by UGT2B10 (UGT2B10): does not inhibit
effect on cigarette cues (cigarette smokers): reduced the salience and pleasantness of cigarette cues
nonspecific binding [1]: 70–90%
